# Source: PubChem BioAssay (NCI)
#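 Growth conditions: 96-well plates. Treatment: test compound, 48 hours, 5 concentrations. Analysis: linear interpolation between bracketing concentrations; unreached endpoints set to highest concentration. Here, GI50 denotes the concentration required for 50% inhibition of growth. Definition used: TGI = concentration required for complete inhibition of growth.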
# Tests used:
# Test in all cases: NCI-60 cell line screen, 48 h
# U251 CNS = tested on: U251 CNS
# A498 renal = tested on: A498 renal
# RXF 393 renal = tested on: RXF 393 renal
# HCT-15 colon = tested on: HCT-15 colon
# A549 NSCLC = tested on: A549 NSCLC
# 786-0 renal = tested on: 786-0 renal
# HT29 colon = tested on: HT29 colon
# SK-OV-3 ovarian = tested on: SK-OV-3 ovarian
# KM12 colon = tested on: KM12 colon
# SK-MEL-28 melanoma = tested on: SK-MEL-28 melanoma
SMILES,GI50 (U251 CNS) [µM],TGI (U251 CNS) [µM],GI50 (A498 renal) [µM],TGI (A498 renal) [µM],GI50 (RXF 393 renal) [µM],TGI (RXF 393 renal) [µM],GI50 (HCT-15 colon) [µM],TGI (HCT-15 colon) [µM],GI50 (A549 NSCLC) [µM],TGI (A549 NSCLC) [µM],GI50 (786-0 renal) [µM],TGI (786-0 renal) [µM],GI50 (HT29 colon) [µM],TGI (HT29 colon) [µM],GI50 (SK-OV-3 ovarian) [µM],TGI (SK-OV-3 ovarian) [µM],GI50 (KM12 colon) [µM],TGI (KM12 colon) [µM],GI50 (SK-MEL-28 melanoma) [µM],TGI (SK-MEL-28 melanoma) [µM]
N#Cc1cnc2cc(OC[C@H](O)CO)c(NC(=O)CC3CSSC3)cc2c1Nc1ccc(OCc2cccc(F)c2)c(Cl)c1,0.465,1.33,1.03,2.45,0.987,1.85,3.96,13.2,0.924,1.98,1.76,9.6,0.221,0.836,0.748,1.48,0.155,0.45,0.126,0.319
Cc1occc1C(=S)Nc1ccc(Cl)c(COC(C)(C)C)c1,–,28.9,–,32.3,–,32.3,–,34.5,–,41.8,–,30.3,–,29.6,–,34,–,31.7,–,30.1
Cc1c(C(=O)/C=C/c2csc3ccccc23)[n+](=O)c2ccccc2n1[O-],1.64,3.17,3.38,13.8,1.91,3.58,1.83,4.4,2.13,5.25,1.64,3.09,2.2,4.13,1.79,4.95,1.56,2.9,2.07,4.81
CCN(CC)CCn1ccc(=O)c2cc3c(=O)ccn(CCN(CC)CC)c3c(C)c21,–,19.7,–,29.2,–,14.1,–,15.6,–,14.1,–,8.56,–,12.7,–,15.9,–,2.61,–,35.1
CN(C)S(=O)(=O)c1ccc(NC(=O)COC(=O)c2ccc(S(=O)(=O)N3CCCCC3)cc2)cc1,> 100,> 100,> 100,> 100,> 100,> 100,> 100,> 100,> 100,> 100,> 100,> 100,> 100,> 100,> 100,> 100,> 100,> 100,> 100,> 100
O=C1c2ccccc2-c2c1c1ccccc1c(=O)n2CCCNCCCNCCCn1c2c(c3ccccc3c1=O)C(=O)c1ccccc1-2,< 0.01,0.122,1.25,2.61,0.0569,1.11,0.0605,0.196,0.0174,0.183,< 0.0362,0.172,< 0.01,0.135,1.9,6.04,0.028,0.219,1.17,2.83
ClCCn1c(CCl)nc2ccc(Cl)cc21,1.16,2.7,2.05,4.8,0.379,1.34,0.392,2.23,1.76,4.24,1.32,2.94,0.436,1.39,0.305,0.853,1.91,4.33,1.68,3.49
C=C1C(=O)O[C@H]2[C@H]1CC/C(COC(=O)NCc1ccccc1OC)=C\CC[C@@]1(C)O[C@@H]21,2.2,6.85,3.23,8.53,1.04,2.57,1.04,2.47,3.07,11.8,1.16,2.74,1.22,3.43,13.5,26.8,3.53,13.6,1.52,3.61
COc1cccc(/C=C/C(=O)c2cccc(Nc3nc(Nc4ccccc4)nc(Nc4ccccc4)n3)c2)c1,9.5,> 73.8,6.04,17.7,10.7,35.6,9.59,> 100,30.9,> 100,18.6,> 65.5,4.36,> 81.7,> 78.5,> 100,3.88,18.3,20.8,56.2
CN1CCN(CCc2cccc(C(=O)c3cnn(-c4ccc(F)cc4)c3N)c2)CC1,> 25,> 25,> 25,> 25,> 25,> 25,> 25,> 25,> 25,> 25,> 25,> 25,> 25,> 25,> 25,> 25,> 25,> 25,> 25,> 25
COc1nc(NC2OCC(OC(C)=O)C(OC(C)=O)C2OC(C)=O)c(N=CC=Nc2c(NC3OCC(OC(C)=O)C(OC(C)=O)C3OC(C)=O)nc(OC)n(C)c2=O)c(=O)n1C (stereo not given),–,> 100,–,> 100,–,> 100,–,> 100,–,> 100,–,> 100,–,> 100,–,> 100,–,> 100,–,> 100
CCN(CC)c1ccc(C(=C2C=CC(=[N+](CC)Cc3cccc(S(=O)(=O)O)c3)C=C2)c2ccc(N(CC)Cc3cccc(S(=O)(=O)O)c3)cc2)cc1,3.58,> 100,5.35,32.4,7.94,76.1,28.5,> 100,4.28,> 100,12.9,98.9,3.4,> 88.9,5.04,27.1,4.36,28.9,15.6,> 100
CC(=O)NNc1nc(C)c(C(=O)NNC(=O)C(=O)Nc2ccccc2C#N)s1,–,> 100,–,> 100,–,> 100,–,> 100,–,> 100,–,> 100,–,> 100,–,> 100,–,> 100,–,> 100
